This passage reports IC50, Activity and inhibition results from ChEMBL document CHEMBL4831508, “Anti-inflammatory Cassane-Type Diterpenoids from the Seed Kernels of Caesalpinia sinensis” (J Nat Prod, 2021).

Bounds are passed on as bounds.

What is called IC50 is the point on the concentration scale where inhibition reaches its midpoint.

Data set [1] deals with RAW264.7. In words: Antiinflammatory activity in mouse RAW264.7 cells assessed as inhibition of LPS-induced NO production preincubated for 3 hrs followed by LPS-stimulation and measured after 24 hrs by Griess reagent based assay. In kind it is functional, cell-based.
Data set [2] deals with RAW264.7. In words: Cytotoxicity against mouse RAW264.7 cells assessed as cell viability measured after 24 hrs by CCK8 assay. The class given is cell-based. The following applies: raw264.7, 24 h.
In data set [3] the test system is RAW264.7. Nature of the data set: Antiinflammatory activity in mouse RAW264.7 cells assessed as inhibition of LPS-induced iNOS enzyme activity preincubated for 3 hrs followed by LPS-stimulation and measured after 24 hrs by fluorescence plate reader assay. In kind it is functional, cell-based. The following applies: dose 3-30 µM.
Data set [4] concerns RAW264.7. In words: Antiinflammatory activity in mouse RAW264.7 cells assessed as inhibition of LPS-induced iNOSs protein expression preincubated for 3 hrs followed by LPS-stimulation and measured after 24 hrs by Western blot analysis. The class given is functional, cell-based. To be noted: dose 3-30 µM. A general note: In western blotting, separated proteins are transferred to a membrane and probed.

Turning to `CC(=O)O[C@H]1CC[C@]2(C)[C@H]3C[C@H]4OC(=O)C=C4[C@H](C)[C@@H]3CC[C@H]2C1(C)C`, the IC50 with RAW264.7 [1] was determined as 49.8 µM. The Activity result in the data set with RAW264.7 [2] was “Non-Toxic”.
Consider `C[C@@H]1C[C@H]2[C@@H]3CCC4=CC(=O)C=C[C@]4(C)[C@@]3(F)[C@@H](O)C[C@]2(C)[C@@]1(O)C(=O)CO` [DEXAMETHASONE], for which, in the data set on RAW264.7 [1], the IC50 came to 0.58 µM. In addition, the Activity entry with RAW264.7 [2] is listed as “Non-Toxic”.
On to `CC(=O)O[C@@H]1C[C@H]2[C@@H](C)C3=CC(=O)OC3=C[C@@H]2[C@@]2(C)CCCC(C)(C)[C@H]12`, for which the IC50 in the data set with RAW264.7 [1] was over 50 µM. In the data set on RAW264.7 [2], the Activity entry is “Non-Toxic”.
On the same counts, the results for `C[C@H]1C2=CC(=O)OC2=C[C@H]2[C@H]1C[C@@H](O)[C@H]1C(C)(C)CCC[C@]21C` are 34.4 µM and “Non-Toxic”.
`CC(=O)O[C@@H]1C[C@@H]2[C@H](C=C3NC(=O)C=C3[C@@]2(C)O)[C@@]2(C)CCCC(C)(C)[C@H]12`: the IC50 with RAW264.7 [1] is 9.8 µM. Also, in the data set on RAW264.7 [2], the Activity result was “Non-Toxic”.
`C[C@H]1C2=CC(=O)O[C@]2(O)C[C@H]2[C@H]1C[C@@H](O)[C@H]1C(C)(C)CCC[C@]21C`: the IC50 in the data set with RAW264.7 [1] was 21.5 µM. Besides, the Activity entry in the data set on RAW264.7 [2] was “Non-Toxic”.
As for `CO[C@@]12C[C@H]3[C@@H](C[C@@H](O)[C@H]4C(C)(C)CCC[C@]34C)[C@@H](C)C1=CC(=O)O2`, the IC50 in the data set on RAW264.7 [1] is 29.2 µM. Besides, the Activity result in the data set with RAW264.7 [2] is “Non-Toxic”.
`C[C@H]1C2=CC(=O)O[C@@H]2C[C@H]2[C@H]1C[C@@H](O)[C@H]1C(C)(C)CCC[C@]21C`: in the data set on RAW264.7 [1], the IC50 turned out to be 40.3 µM. In addition, in the data set on RAW264.7 [2], the Activity result is “Non-Toxic”.
As for `CC(=O)O[C@@H]1CC(C)(C)[C@@H]2CC[C@H]3[C@@H](C)C4=CC(=O)O[C@@H]4C[C@@H]3[C@@]2(C)C1`, in the data set with RAW264.7 [1], the IC50 is over 50 µM. For the same compound, the Activity entry with RAW264.7 [2] is listed as “Non-Toxic”.
On the same counts, the results for `C[C@H]1C2=CC(=O)OC2=C[C@H]2[C@H]1C[C@@H](O)[C@H]1[C@](C)(CO)CCC[C@]21C` are 45.8 µM and “Non-Toxic”.
`C[C@H]1C2=CC(=O)NC2=C[C@H]2[C@H]1C[C@@H](O)[C@H]1C(C)(C)CCC[C@]21C`: the inhibition result in the data set with RAW264.7 [3] and with RAW264.7 [4] was “Dose-Dependent Effect” in each case. For the same compound, the IC50 in the data set on RAW264.7 [1] worked out at 8.2 µM. Besides, the Activity entry in the data set with RAW264.7 [2] was “Non-Toxic”.
In the case of `C[C@@H]1[C@@H]2C[C@@H](O)[C@H]3[C@](C)(CO)CCC[C@]3(C)[C@H]2C=C2NC(=O)C[C@@H]21`, the IC50 with RAW264.7 [1] was found to be 21 µM. For the same compound, in the data set on RAW264.7 [2], the Activity result is “Non-Toxic”.
In the case of `C[C@H]1C2=CC(=O)N(CCO)[C@@H]2C[C@H]2[C@H]1C[C@@H](O)[C@H]1C(C)(C)CCC[C@]21C`, the half-maximal inhibitory concentration (IC50) in the data set with RAW264.7 [1] stood at 16.4 µM. Further, the Activity result in the data set with RAW264.7 [2] is listed as “Non-Toxic”.
With `C[C@H]1C2=CC(=O)O[C@@H]2C[C@H]2[C@H]1C[C@@H](O)[C@H]1[C@@](C)(CO)CCC[C@]21C`, the IC50 with RAW264.7 [1] is over 50 µM. Besides, in the data set on RAW264.7 [2], the Activity result was “Non-Toxic”.
For `CC(=O)O[C@@H]1C[C@@H]2[C@H](C=C3NC(=O)C=C3[C@]2(C)O)[C@@]2(C)CCCC(C)(C)[C@H]12`, the IC50 in the data set on RAW264.7 [1] came out at 11.2 µM. In addition, the Activity result with RAW264.7 [2] is given as “Non-Toxic”.
On to `CO[C@@]12C[C@H]3[C@@H](C[C@@H](O)[C@H]4[C@](C)(CO)CCC[C@]34C)[C@@H](C)C1=CC(=O)O2`, for which the IC50 with RAW264.7 [1] is over 50 µM. Further, the Activity entry in the data set on RAW264.7 [2] is on record as “Non-Toxic”.
On the same counts, the results for `CC(=O)O[C@@H]1C[C@H]2[C@@H](C)C3=CC(=O)O[C@@H]3C[C@@H]2[C@@]2(C)CCCC(C)(C)[C@H]12` are over 50 µM and “Non-Toxic”.
Consider `CO[C@@]12C[C@H]3[C@@H](CC[C@H]4C(C)(C)CCC[C@]34C)[C@@H](C)C1=CC(=O)O2`, for which the IC50 with RAW264.7 [1] is over 50 µM. The Activity entry in the data set on RAW264.7 [2] was “Non-Toxic”.
`CO[C@@]12C[C@H]3[C@@H](C[C@@H](OC(C)=O)[C@H]4C(C)(C)CCC[C@]34C)[C@@H](C)C1=CC(=O)O2`: in the data set with RAW264.7 [1], the IC50 is over 50 µM. In addition, the Activity entry in the data set with RAW264.7 [2] is given as “Non-Toxic”.
